pIC50: −log10 of the molar value.
Biological target: T1, human M5 receptors (hM5) (Homo sapiens, UniProt P08912)
T1 construct: expressed in transfected cells
T1 sequence (P08912 1-532): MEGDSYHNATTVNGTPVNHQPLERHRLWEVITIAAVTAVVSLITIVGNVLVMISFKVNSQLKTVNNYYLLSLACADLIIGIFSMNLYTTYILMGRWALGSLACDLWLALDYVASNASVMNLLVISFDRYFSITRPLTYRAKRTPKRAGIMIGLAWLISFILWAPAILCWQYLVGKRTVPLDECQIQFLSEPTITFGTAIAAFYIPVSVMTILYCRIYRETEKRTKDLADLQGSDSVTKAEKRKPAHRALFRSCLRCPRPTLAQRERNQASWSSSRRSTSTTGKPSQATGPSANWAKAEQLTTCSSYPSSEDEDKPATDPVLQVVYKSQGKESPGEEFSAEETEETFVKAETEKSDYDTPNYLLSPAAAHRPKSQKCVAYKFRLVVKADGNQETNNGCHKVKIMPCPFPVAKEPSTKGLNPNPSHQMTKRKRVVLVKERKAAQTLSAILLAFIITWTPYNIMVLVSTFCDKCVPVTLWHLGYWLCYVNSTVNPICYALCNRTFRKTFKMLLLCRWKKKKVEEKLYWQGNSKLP
Assay: Cell-based functional calcium mobilization assay of mAChR M5 activity (inhibition of EC80 acetylcholine response) in CHO cells
Conditions: CHO cells stably expressing hM5; for pIC50: calcium flux (Fluo-4), EC80 acetylcholine addition; for EC80 MIN: minimum of EC80 acetylcholine response, normalized to maximum acetylcholine response
Experimental: All functional cell-based assays were performed essentially as previously described (Marlo et al., Mol.Pharm. 2009, 75(3), 577-588; Brady et al., J. Pharm. & Exp. Ther. 2008, 327, 941-953). Initial, single point (10 µM) competitive and non-competitive inhibitor characterization was performed in stable Chinese Hamster Ovary (CHO) cell lines constitutively expressing human M5 receptors. These were plated at 15,000 cells per 20 µL per well in Greiner 384-well black-walled, TC-treated, clear-bottomed plates (Fisher) in Ham’s F12 medium supplemented with 10% FBS and 20 mM HEPES. Cells were incubated overnight at 37° C. under 5% CO2. The following day, medium was exchanged with assay buffer (Hank’s Balanced Salt Solution supplemented with 20 mM HEPES and 2.5 mM Probenecid, pH 7.4) leaving 20 µL of assay buffer in each well. This was followed by the addition of 20 µL of 2.3 µM of Fluo-4 AM (Invitrogen) in assay buffer (final concentration 1.15 µM). The cells were then incubated 50 minutes at 37° C. under 5% CO2. The assay buffer plus dye was then exchanged with fresh assay buffer leaving a volume of 20 µL in each well. Test compounds were diluted into assay buffer to a 2X (20 µM) concentration in 0.2% dimethylsulfoxide (DMSO) in columns 3 - 22 with matching DMSO concentration in columns 1, 2, 23, and […]; compounds were added to the assay for a final concentration of 10 µM and a final DMSO concentration of 0.1%. Acetylcholine (Sigma-Aldrich) was prepared to provide 5X concentrations of EC20, EC80, and ECmax in the triple-addition assay, providing a signal window to view agonism, potentiation, and inhibition of the acetylcholine response as well as a means to normalize to the maximum acetylcholine response.
Either an FDSS (Hamamatsu) or Panoptic (WaveFront Biosciences) kinetic imaging plate reader was used for assay execution and measurement of calcium flux. After establishing baseline fluorescence, test compounds (20 µL) were added to the cells using the reader’s integrated pipettor and allowed to equilibrate for 140 seconds before addition of the EC20 concentration of acetylcholine (10 µL) along with vehicle in selected DMSO-only wells in the outer two columns. The EC80 concentration of acetylcholine (10 µL) was added 125 seconds after the EC20 addition along with ECmax concentration in the wells receiving vehicle in the second addition. The raw fluorescence data from each well was normalized to the corresponding initial fluorescence reading (static ratio). The maximum fluorescence value following each addition was determined and the minimum value within that same timeframe was subtracted for each well then normalized to the average of the ECmax maximum-minimum response, providing a %AChmax value for each addition for each well. The single point values represent mean values determined within the EC80 addition timeframe obtained from at least three independent determinations performed in triplicate or greater (error bars represent +/- SEM) unless otherwise specified.
Further characterization of competitive and non-competitive inhibitor compounds (compound potency and mAChR subtype-selectivity) was performed on the FDSS with calcium mobilization assays performed as previously described (Marlo et al., 2009; Brady et al., 2008) and in a format similar to that described above using the same reagents. CHO cells stably expressing hM1, hM2/Gqi5, hM3, hM4/Gqi5, hM5, rM1, rM2/Gqi5, rM3, rM4/Gqi5, or rMs were plated in the manner described above. A ten-point concentration range of test compound was serial diluted in assay buffer to 2X final concentration and acetylcholine was diluted in assay buffer to 5X of the EC20 and EC80 concentrations, determined empirically and 5X maximal (2 mM final concentration) stock concentrations. FDSS protocols were carried out as described above; the static ratio was calculated and the minimum response subtracted from the maximum response within the timeframe of each addition. […]

SMILES | pIC50 | EC80 MIN [%]
CC1COc2ccc(S(=O)(=O)N3CCC(C(=O)Nc4ccc5scnc5c4)CC3)cc21 (racemic) [Compound 131, (rac)-N-(benzo[d]thiazol-5-yl)-1-((3-methyl-2,3-dihydrobenzofuran-5-yl)sulfonyl)piperidine-4-carboxamide] | 6.96 | 3
C[C@@H]1C[C@@H](C(=O)Nc2ccc3scnc3c2)CCN1S(=O)(=O)c1ccc2ncsc2c1 (racemic) [Compound 134, trans-(rac)-N-(benzo[d]thiazol-5-yl)-1-(benzo[d]thiazol-6-ylsulfonyl)-2-methylpiperidine-4-carboxamide] | 6.24 | 3
Cc1cc2c(cc1S(=O)(=O)N1CCC(C(=O)Nc3ccc4scnc4c3)CC1)C(C)CO2 (racemic) [Compound 145, (rac)-N-(benzo[d]thiazol-5-yl)-1-((3,6-dimethyl-2,3-dihydrobenzofuran-5-yl)sulfonyl)piperidine-a-carboxamide] | 5.86 | 3
Cn1ncc(S(=O)(=O)N2CC[C@H](C(=O)Nc3ccc4scnc4c3)[C@@H](F)C2)c1Cl (racemic) [Compound 159, trans-(rac)-N-(benzo[d]thiazol-5-yl)-1-((5-chloro-1-methyl-1H-pyrazol-4-yl)sulfonyl)-3-fluoropiperidine-4-carboxamide] | 8.00 | 2
Cc1ncc(S(=O)(=O)N2CC[C@H](C(=O)Nc3ccc4scnc4c3)[C@@H](F)C2)s1 (racemic) [Compound 160, trans-(rac)-N-(benzo[d]thiazol-5-yl)-3-fluoro-1-((2-methylthiazol-5-yl)sulfonyl)piperidine-4-carboxamide] | 7.89 | 2
O=C(Nc1ccc2scnc2c1)C1CCN(S(=O)(=O)c2ccc(Cl)s2)CC1 [Compound 1, N-(benzo[d]thiazol-5-yl)-1-((5-chlorothiophen-2-yl)sulfonyl)piperidine-4-carboxamide] | 5.56 | 3
O=C(Nc1ccc2scnc2c1)C1CCN(S(=O)(=O)c2ccc3c(c2)CCO3)CC1 [Compound 2, N-(benzo[d]thiazol-5-yl)-1-((2,3-dihydrobenzofuran-5-yl)sulfonyl)piperidine-4-carboxamide] | 7.14 | 2
O=C(Nc1ccc2scnc2c1)C1CCN(S(=O)(=O)c2ccc3ncsc3c2)CC1 [Compound 3, N-(benzo[d]thiazol-5-yl)-1-(benzo[d]thiazol-6-ylsulfonyl)piperidine-4-carboxamide] | 6.17 | 5
O=C(Nc1ccc2scnc2c1)C1CCN(S(=O)(=O)c2ccc3ncccc3c2)CC1 [Compound 4, N-(benzo[d]thiazol-5-yl)-1-(quinolin-6-ylsulfonyl)piperidine-4-carboxamide] | 6.02 | 2
Cc1nn(C)cc1S(=O)(=O)N1CCC(C(=O)Nc2ccc3scnc3c2)CC1 [Compound 5, N-(benzo[d]thiazol-5-yl)-1-((1,3-dimethyl-1H-pyrazol-4-yl)sulfonyl)piperidine-4-carboxamide] | 6.52 | 2
O=C(Nc1ccc2scnc2c1)C1CCN(S(=O)(=O)c2ccc(Cl)nc2)CC1 [Compound 7, N-(benzo[d]thiazol-5-yl)-1-((6-chloropyridin-3-yl)sulfonyl)piperidine-4-carboxamide] | 6.74 | 4
O=C(Nc1ccc2scnc2c1)C1CCN(S(=O)(=O)c2ccsc2)CC1 [Compound 8, N-(benzo[d]thiazol-5-yl)-1-(thiophen-3-ylsulfonyl)piperidine-4-carboxamide] | < 5.00 | 23
N#Cc1cc(S(=O)(=O)N2CCC(C(=O)Nc3ccc4scnc4c3)CC2)ccc1Cl [Compound 9, N-(benzo[d]thiazol-5-yl)-1-((4-chloro-3-cyanophenyl)sulfonyl)piperidine-4-carboxamide] | < 5.00 | 38

Source: patent US20230303552A1, “ARYLSULFONYL DERIVATIVES AND THEIR USE AS MUSCARINIC ACETYLCHOLINE RECEPTOR M5 INHIBITORS” (Vanderbilt University, priority 2020, published 2023)
